These results are taken from patent US20080293683A1, “Hormone Replacement Therapy” (University of Kansas Medical Center, priority 2007, published 2008).

The target of assay [1] is T1, recombinant human ERβ (Homo sapiens, UniProt Q92731).
T1 construct: purchased PanVera Corporation (Madison, Wis.); host or cells: baculovirus-mediated expression system
The assay can be described thus: ERβ binding assay: competition of [3H]E2 binding by competing estrogens. As to conditions: for RBAβ (%) (relative binding affinity for ERβ, of E2): calculated against E2 = 100. From the text: (§1) The recombinant human ERα and ERβ proteins and bovine serum albumin (BSA) were obtained from PanVera Corporation (Madison, Wis.). According to the supplier, the recombinant human ERα and ERβ were produced in a baculovirus-mediated expression system, and they were soluble and functionally active, with post-translational modifications similar to those found in mammalian cells. See Reid et al., Human estrogen receptor-α: Regulation by synthesis, modification and degradation, Cell. Mol. Life.
(§2) The following buffer solutions were used in the ER binding assays, and they were prepared beforehand and stored at 4° C. The binding buffer consisted of 10% glycerol, 2 mM dithiothreitol, 1 mg/mL BSA and 10 mM Tris-HCl at pH 7.5. The ERα washing buffer contained 40 mM Tris-HCl and 100 mM KCl (pH 7.4), but the ERG washing buffer contained only 40 mM Tris-HCl (adjusted to pH 7.4). The 50% hydroxylapatite slurry was prepared first by vigorously mixing 10 g hydroxylapatite with 60 mL of the Tris-HCl solution (50 mM, pH 7.4). Hydroxylapatite was then allowed to settle for 20 minutes at room temperature, and the supernatant was decanted. The above procedures were repeated 10 times, and afterwards hydroxylapatite was kept in the 50 mM Tris-HCl solution overnight at 4° C. Hydroxylapatite slurry was then adjusted to an approximate final concentration of 50% (v/v) using the same Tris-HCl solution and stored at 4° C., and the slurry was stable for up to several months.
(§3) Note that all of the estrogens were initially dissolved in pure ethanol to a stock concentration of 1 mM, and then further diluted to 100 μM with 20% aqueous ethanol. […] Immediately before the addition of the ERα or ERβ protein, it was diluted in the binding buffer and mixed gently with repetitive pipettings. […] The incubation mixture was then mixed gently and thoroughly with repetitive pipettings. […] The binding mixture was incubated at room temperature for two hours. At the end of the incubation, 100 μL of the hydroxylapatite slurry was added to each tube and the tubes were incubated on ice for 15 minutes with 3 times of brief vortexing. An aliquot (1 mL) of the appropriate washing buffer was added, mixed, and centrifuged at 10,000 g for five minutes, and the supernatants were discarded. This wash step was repeated twice. Hydroxylapatite pellets were then resuspended in 200 μL ethanol (followed by another rinse with 200 μL ethanol), and then the content was transferred to scintillation vials (containing 4 mL of the scintillation fluid) for measurement of ^3H-radioactivity with a liquid scintillation counter (Packard Tri-CARB 2900 TR; Downers Grove, Ill.).
(§4) To calculate the specific binding (pmol/mL) of the human ERα or ERβ protein at each concentration point, the following equation was used: […]
(§5) When a lower radioligand concentration is used, the corresponding IC50 value will also be relatively lower, but when the radioligand concentration increases, the corresponding IC50 value will also increase. […] Since the RBA value is a parameter that is independent of the radioligand concentration used, we thus have placed more emphasis on the RBA values instead of the absolute IC50 values in interpreting the physiological meanings of the data from in vitro receptor competition assays.

Assay [2] deals with T2, recombinant human ERα (Homo sapiens, UniProt P03372).
T2 construct: purchased PanVera Corporation (Madison, Wis.); host or cells: baculovirus-mediated expression system
T2 sequence (P03372 1-595): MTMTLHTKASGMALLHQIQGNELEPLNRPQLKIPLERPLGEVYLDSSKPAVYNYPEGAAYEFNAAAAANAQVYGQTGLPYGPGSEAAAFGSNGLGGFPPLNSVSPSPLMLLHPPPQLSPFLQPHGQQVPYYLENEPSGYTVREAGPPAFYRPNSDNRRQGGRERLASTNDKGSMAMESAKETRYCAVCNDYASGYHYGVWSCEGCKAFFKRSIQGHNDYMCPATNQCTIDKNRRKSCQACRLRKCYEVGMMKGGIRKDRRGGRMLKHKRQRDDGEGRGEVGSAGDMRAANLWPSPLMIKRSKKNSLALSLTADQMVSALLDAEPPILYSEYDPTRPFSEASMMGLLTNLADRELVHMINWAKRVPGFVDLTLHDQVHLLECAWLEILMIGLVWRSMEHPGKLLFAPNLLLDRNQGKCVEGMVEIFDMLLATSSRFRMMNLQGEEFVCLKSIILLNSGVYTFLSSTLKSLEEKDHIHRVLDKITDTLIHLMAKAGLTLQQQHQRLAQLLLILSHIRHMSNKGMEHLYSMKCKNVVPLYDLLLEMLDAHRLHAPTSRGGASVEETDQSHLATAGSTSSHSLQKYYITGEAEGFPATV
The assay can be described thus: ERα binding assay: competition of [3H]E2 binding by competing estrogens. The settings on record: for RBAα % (relative binding affinity for ERα, of E2): calculated against E2 = 100; for RBAα/RBAβ: ratio of relative binding affinities ERα over ERβ.
Description: as §1, §2, §3, §4, §5

Like-named read-outs stand apart in the source and are kept apart here. Some results are limits rather than exact numbers.

T1 sequence (Q92731 whole entry): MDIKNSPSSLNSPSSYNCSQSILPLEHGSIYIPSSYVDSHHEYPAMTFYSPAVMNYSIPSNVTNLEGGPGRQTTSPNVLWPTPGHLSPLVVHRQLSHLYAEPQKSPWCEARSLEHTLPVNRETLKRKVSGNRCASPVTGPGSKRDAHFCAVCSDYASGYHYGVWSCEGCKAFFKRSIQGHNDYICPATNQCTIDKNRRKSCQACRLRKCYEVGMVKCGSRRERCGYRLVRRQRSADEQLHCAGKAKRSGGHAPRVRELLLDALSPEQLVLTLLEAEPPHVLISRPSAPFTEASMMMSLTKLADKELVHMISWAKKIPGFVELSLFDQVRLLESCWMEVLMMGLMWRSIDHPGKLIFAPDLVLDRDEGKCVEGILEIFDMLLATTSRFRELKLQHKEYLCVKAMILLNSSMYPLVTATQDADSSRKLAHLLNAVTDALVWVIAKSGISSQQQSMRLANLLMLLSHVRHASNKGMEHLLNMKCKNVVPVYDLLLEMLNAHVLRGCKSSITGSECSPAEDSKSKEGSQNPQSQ

Consider `C[C@]12CC[C@@H]3c4ccc(O)c(O)c4CC[C@H]3[C@@H]1CC[C@@H]2O` [4-OH-E2, 4-Hydroxyestradiol], for which the “RBAβ (%) (relative binding affinity for ERβ, of E2)” value in assay [1] is on record as 56%. Also, the IC50 in assay [1] (read-out: ERβ IC50) and in assay [2] (read-out: ERα IC50) was 15.9 nM each time. Further, in assay [2], the “RBAα % (relative binding affinity for ERα, of E2)” value is reported as 70%. The RBAα/RBAβ in assay [2] is listed as 1.3; in assay [2] (listed as 4-hydroxyestradiol), “about 1.3”.
`COc1c(O)ccc2c1CCC1C2CCC2(C)C(O)CCC12` (stereo not shown) [4-MeO-E2, 4-Methoxyestradiol]: in assay [1], the IC50 was determined as 891 nM and the “RBAβ (%) (relative binding affinity for ERβ, of E2)” value is reported as 1%. In assay [2], the IC50 is 708 nM; the “RBAα % (relative binding affinity for ERα, of E2)” value is recorded as 2%; the RBAα/RBAβ was determined as 2. Besides, the RBAα/RBAβ entry in assay [2] (listed as 4-methoxyestradiol) is listed as “about 2”.
On to `COc1cc2c(cc1OC)[C@H]1CC[C@]3(C)C(=O)CC[C@H]3[C@@H]1CC2` [2,3-diMeO-E1, Estrone 2,3-dimethyl ether], for which the IC50 in assay [1] (read-out: ERβ IC50) and in assay [2] (read-out: ERα IC50) was more than 1000 nM in each case.
As to `C[C@@]12C=CC[C@H]1[C@@H]1CCc3cc(O)ccc3[C@H]1CC2` [16-Estratetraen, 1,3,5(10),16-Estratetraen-3-ol], the “RBAβ (%) (relative binding affinity for ERβ, of E2)” value in assay [1] is reported as 80%. For the same molecule, the IC50 in assay [1] (read-out: ERβ IC50) is 14.1 nM. Besides, in assay [2], the “RBAα % (relative binding affinity for ERα, of E2)” value is reported as 35% and the RBAα/RBAβ stood at 0.4. Further, the IC50 in assay [2] (read-out: ERα IC50) is 31.6 nM.
`CC12CCC3c4ccc(O)cc4C(=O)CC3C1CC(O)C2O` (stereo not shown) [6-Keto-E3, 6-Ketoestriol]: the “RBAβ (%) (relative binding affinity for ERβ, of E2)” value in assay [1] is on record as 3%. Besides, the IC50 in assay [1] (read-out: ERβ IC50) came out at 316 nM; in assay [2] (read-out: ERα IC50) it was 44.7 nM. In assay [1] (relative to E3), the “RBA for ERβ, % of E3” value was 8%. For the same molecule, in assay [2], the “RBAα % (relative binding affinity for ERα, of E2)” value is recorded as 25%. Also, the values for the RBAα/RBAβ in assay [2] and in assay [2] (listed as 6-ketoestriol) were 8.3 and “about 8.3”, respectively. In assay [2] (relative to E3), the “RBA for ERα, % of E3” value stood at 224%.
Turning to `COc1cc2c(cc1O)CC[C@@H]1[C@@H]2CC[C@]2(C)[C@@H](O)CC[C@@H]12` [2-MeO-E2, 2-Methoxyestradiol], the IC50 came out at 631 nM in assay [1] ([3H]E2 10 nM, competitor up to 1000 nM, read-out: ERβ IC50) and 501 nM in assay [2] ([3H]E2 10 nM, competitor up to 1000 nM, read-out: ERα IC50). Further, in assay [1], the “RBAβ (%) (relative binding affinity for ERβ, of E2)” value is 1%. For the same molecule, the “RBAα % (relative binding affinity for ERα, of E2)” value in assay [2] is 2%. The RBAα/RBAβ in assay [2] was 2; in assay [2] (listed as 2-methoxyestradiol) it was “about 2”.
As for `CC12CCC3c4ccc(O)cc4CCC3C1CC(=O)C2=O` (stereo not shown) [16-Keto-E1, 16-Ketoestrone], in assay [1], the “RBAβ (%) (relative binding affinity for ERβ, of E2)” value is 10%. Also, the IC50 in assay [1] (read-out: ERβ IC50) worked out at 89.1 nM. In assay [1] (relative to E1), the “RBA for ERβ, % of E1” value worked out at 501%; the “binding affinity for ERβ, fold higher than E1” value was “five-fold higher”; the “relative preference for ERβ over ERα, times higher than E1” value is reported as “approximately 25 times”. Besides, in assay [2], the “RBAα % (relative binding affinity for ERα, of E2)” value was 2% and the RBAα/RBAβ is 0.2. In addition, the IC50 in assay [2] (read-out: ERα IC50) came to 631 nM. The “RBA for ERα, % of E1” value in assay [2] (relative to E1) is listed as 18%.
With `COc1cc2c(cc1O)[C@H]1CC[C@]3(C)[C@@H](O)CC[C@H]3[C@@H]1CC2` [2-OH-3-MeO-E2, 2-Hydroxyestradiol 3-methyl ether], the “binding affinity for ERβ (in words)” value in assay [1] (concentrations up to 1000 nM) is given as “substantially weaker binding affinity”. The IC50 in assay [1] (read-out: ERβ IC50) and in assay [2] (read-out: ERα IC50) was more than 1000 nM in each case. Further, the “binding affinity for ERα (in words)” value in assay [2] (concentrations up to 1000 nM) was “substantially weaker binding affinity”.

The IC50 is the concentration that inhibits the measured activity by half.
